Data: ChEMBL document CHEMBL1201862, “PubChem BioAssay data set” (2004)
One block for each molecule: values may come before it. Active and inactive are the calls of the source.

Key:
HEK293 [1] = experiment: cells; format: functional, cell-based; conditions: Homo sapiens
[2] = target: T1, Nucleotide-binding oligomerization domain-containing protein 2 (Homo sapiens, UniProt Q9HC29); experiment: NOD2 signaling inhibitors, cell-based, luminescence, uHTS, HEK293 (AID 1566); format: functional
Tumor necrosis factor = Tumor necrosis factor (Homo sapiens, UniProt P01375); experiment: TNFa-triggered NF-kB activation inhibitors, SAR follow-up, cell-based, revised (AID 2337); format: functional
HEK293 [3] = experiment: cells; format: functional, cell-based; conditions: Homo sapiens; remark: listed apart in the source
[4] = target: Nucleotide-binding oligomerization domain-containing protein 1 (Homo sapiens, UniProt Q9Y239); experiment: NOD1 signaling inhibitors, SAR follow-up, revised (AID 2333); format: functional
HEK293 [5] = experiment: NOD1 signaling inhibitors, primary screen, cell-based, luminescence, uHTS (AID 1578); format: functional; conditions: Homo sapiens
HEK293 [6] = experiment: cells; conditions: Homo sapiens
HEK293 [7] = experiment: NOD2 signaling inhibitors in MDP-stimulated cells, cell-based, uHTS, luminescence (AID 2001); format: functional; conditions: Homo sapiens
HEK293 [8] = experiment: cells; format: functional, cell-based; conditions: Homo sapiens; remark: listed apart in the source
[9] = target: T2, Calpain-2 catalytic subunit (Sus scrofa, UniProt P43367); experiment: pig calpain II inhibitor potency, dose response, biochemical, fluorogenic peptide substrate (AID 1420); format: functional
T2 sequence (P43367 whole entry): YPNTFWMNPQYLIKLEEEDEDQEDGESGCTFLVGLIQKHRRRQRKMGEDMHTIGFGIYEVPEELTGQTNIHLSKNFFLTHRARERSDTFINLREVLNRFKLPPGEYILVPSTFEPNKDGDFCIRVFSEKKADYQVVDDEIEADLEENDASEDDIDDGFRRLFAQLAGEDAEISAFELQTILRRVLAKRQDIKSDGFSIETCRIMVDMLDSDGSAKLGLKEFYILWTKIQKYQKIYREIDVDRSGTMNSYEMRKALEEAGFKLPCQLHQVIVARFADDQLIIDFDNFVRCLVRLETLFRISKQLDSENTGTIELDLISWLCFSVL

[10] = target: T1, Nucleotide-binding oligomerization domain-containing protein 2; experiment: PubChem AID 2334; format: functional
T-cell = experiment: inhibitors of CD8+ T cell–vesicle binding, dose response, mouse 2C CD8+ T cells, flow cytometry (AID 485284); format: functional
[11] = target: Voltage-dependent T-type calcium channel subunit alpha-1H (Homo sapiens, UniProt O95180); experiment: Cav3.2 T-type channel inhibitors, cell-based, synthetic library set 1, calcium flux (AID 493022); format: functional
Hexokinase = Hexokinase (Trypanosoma brucei, UniProt Q38C41); experiment: Confirmation assay for inhibitors of Trypanosoma brucei hexokinase 1-Analogue-first series. [Related pubchem assays (depositor defined):AID1430, AID1632, AID2516, AID2560, AID2579, AID2600, AID449725, AID492951]; format: functional
[12] = target: Heat shock protein HSP 90-alpha (Homo sapiens, UniProt P07900); format: functional, organism-based
INS1 = experiment: beta cell apoptosis inhibitors, cytokine rescue, dose response, luminescence, retest (AID 449756); format: functional, cell-based; conditions: Rattus norvegicus;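 also: cell death triggered by IL-1 beta plus TNF-alpha plus IFN-gamma mixture; protective hits raise ATP signal compared with cytokine alone wells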
Cytochrome P450 2C9 = Cytochrome P450 2C9 (Homo sapiens, UniProt P11712)
Cytochrome P450 2C19 = Cytochrome P450 2C19 (Homo sapiens, UniProt P33261); experiment: Cytochrome panel assay with activity outcomes. Panel member name: p450-cyp2c19 Compounds with AC50 equal or less than 10 uM are considered active; format: functional; conditions: read-out: AC50
[13] = growth suppression of PTEN-null colon cells, dose response, cell-based, HCT116 PTEN knockout (AID 1047); format: functional;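 also: HCT116 colon tumor cells with PTEN knocked out; cells exposed to compound for 60 hours before readout; potency for loss of cell viability measured by luminescence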
Beta-galactosidase = Beta-galactosidase (Escherichia coli, UniProt Q8VNN2); experiment: beta-galactosidase enzyme inhibitors and activators, dose response, artefact control for CCR6 antagonist project, biochemical, E. coli enzyme, set 3 (AID 504712); format: functional
[14] = Luminescence Cell-Based Dose Retest to Confirm Inhibitors of Cancer Stem Cells. [Related pubchem assays (depositor defined):AID2717, AID2721]; format: functional; conditions: Homo sapiens
[15] = growth suppression of beta-catenin-knockout colon cells, dose response, cell-based, HCT116, human colon tumor (AID 1045); format: functional;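 also: HCT116 colon tumor cells with beta catenin knocked out; cells exposed to compound for 60 hours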

T1 sequence (Q9HC29 whole entry, the tested form may be a part): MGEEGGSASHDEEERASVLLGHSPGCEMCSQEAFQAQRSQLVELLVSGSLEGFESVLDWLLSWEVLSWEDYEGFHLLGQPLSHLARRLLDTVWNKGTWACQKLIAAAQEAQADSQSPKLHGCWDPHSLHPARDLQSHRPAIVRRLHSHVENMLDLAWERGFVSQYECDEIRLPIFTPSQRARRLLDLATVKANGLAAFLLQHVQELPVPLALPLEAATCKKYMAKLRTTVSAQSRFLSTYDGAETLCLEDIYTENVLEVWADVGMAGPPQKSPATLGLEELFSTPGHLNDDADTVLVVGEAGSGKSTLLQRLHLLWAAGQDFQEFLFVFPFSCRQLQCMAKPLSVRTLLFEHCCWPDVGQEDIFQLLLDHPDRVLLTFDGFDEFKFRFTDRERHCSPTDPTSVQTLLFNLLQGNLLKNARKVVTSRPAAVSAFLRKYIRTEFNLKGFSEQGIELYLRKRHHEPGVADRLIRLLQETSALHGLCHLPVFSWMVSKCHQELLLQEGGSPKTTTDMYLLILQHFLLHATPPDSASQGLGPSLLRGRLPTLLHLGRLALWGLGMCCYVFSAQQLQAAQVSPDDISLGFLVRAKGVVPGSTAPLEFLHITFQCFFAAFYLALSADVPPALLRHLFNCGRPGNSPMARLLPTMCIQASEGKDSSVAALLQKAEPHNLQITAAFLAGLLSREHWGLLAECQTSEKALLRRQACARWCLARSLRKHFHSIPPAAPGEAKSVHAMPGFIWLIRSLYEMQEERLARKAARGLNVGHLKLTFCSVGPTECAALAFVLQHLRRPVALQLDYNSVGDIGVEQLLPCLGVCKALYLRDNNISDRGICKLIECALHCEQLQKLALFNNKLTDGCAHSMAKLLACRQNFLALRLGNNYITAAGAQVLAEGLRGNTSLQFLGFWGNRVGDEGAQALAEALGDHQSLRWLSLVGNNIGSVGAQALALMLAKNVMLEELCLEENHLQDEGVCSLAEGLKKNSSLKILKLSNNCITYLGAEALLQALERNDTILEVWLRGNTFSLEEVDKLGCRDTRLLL
Sequence of Cytochrome P450 2C9 (P11712 whole entry): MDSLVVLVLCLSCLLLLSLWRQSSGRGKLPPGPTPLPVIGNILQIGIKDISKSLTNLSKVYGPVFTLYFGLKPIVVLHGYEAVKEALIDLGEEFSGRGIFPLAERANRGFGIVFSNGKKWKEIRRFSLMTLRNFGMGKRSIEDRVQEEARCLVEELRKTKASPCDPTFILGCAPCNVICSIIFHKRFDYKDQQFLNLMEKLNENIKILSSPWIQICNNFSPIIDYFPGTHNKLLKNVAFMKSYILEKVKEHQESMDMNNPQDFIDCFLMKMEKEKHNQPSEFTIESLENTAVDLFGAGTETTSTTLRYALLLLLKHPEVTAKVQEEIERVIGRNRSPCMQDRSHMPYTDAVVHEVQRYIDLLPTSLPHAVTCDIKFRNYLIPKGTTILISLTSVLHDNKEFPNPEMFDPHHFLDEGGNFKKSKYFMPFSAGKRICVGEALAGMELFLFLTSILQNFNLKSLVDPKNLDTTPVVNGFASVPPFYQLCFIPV
Sequence of Tumor necrosis factor (P01375 whole entry): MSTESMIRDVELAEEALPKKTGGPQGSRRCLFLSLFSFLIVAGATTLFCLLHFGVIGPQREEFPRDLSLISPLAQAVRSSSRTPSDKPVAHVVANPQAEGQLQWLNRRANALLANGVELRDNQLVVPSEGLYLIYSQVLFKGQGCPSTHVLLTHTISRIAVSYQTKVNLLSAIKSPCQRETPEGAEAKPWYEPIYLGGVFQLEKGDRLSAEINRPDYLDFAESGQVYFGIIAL
Sequence of Hexokinase (Q38C41 whole entry): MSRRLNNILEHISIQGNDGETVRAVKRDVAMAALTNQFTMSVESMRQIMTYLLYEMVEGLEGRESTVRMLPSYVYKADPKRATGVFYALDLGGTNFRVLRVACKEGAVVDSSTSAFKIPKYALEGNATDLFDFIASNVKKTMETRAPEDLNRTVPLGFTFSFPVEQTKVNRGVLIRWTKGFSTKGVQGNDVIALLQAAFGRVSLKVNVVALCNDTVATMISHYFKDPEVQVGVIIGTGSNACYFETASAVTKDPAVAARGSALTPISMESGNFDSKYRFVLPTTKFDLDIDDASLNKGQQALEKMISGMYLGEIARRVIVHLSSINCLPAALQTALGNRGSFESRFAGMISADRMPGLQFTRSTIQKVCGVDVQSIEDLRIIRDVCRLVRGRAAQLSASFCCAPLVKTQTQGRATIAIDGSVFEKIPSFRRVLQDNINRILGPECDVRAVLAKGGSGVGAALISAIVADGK
Sequence of Nucleotide-binding oligomerization domain-containing protein 1 (Q9Y239 whole entry, the tested form may be a part): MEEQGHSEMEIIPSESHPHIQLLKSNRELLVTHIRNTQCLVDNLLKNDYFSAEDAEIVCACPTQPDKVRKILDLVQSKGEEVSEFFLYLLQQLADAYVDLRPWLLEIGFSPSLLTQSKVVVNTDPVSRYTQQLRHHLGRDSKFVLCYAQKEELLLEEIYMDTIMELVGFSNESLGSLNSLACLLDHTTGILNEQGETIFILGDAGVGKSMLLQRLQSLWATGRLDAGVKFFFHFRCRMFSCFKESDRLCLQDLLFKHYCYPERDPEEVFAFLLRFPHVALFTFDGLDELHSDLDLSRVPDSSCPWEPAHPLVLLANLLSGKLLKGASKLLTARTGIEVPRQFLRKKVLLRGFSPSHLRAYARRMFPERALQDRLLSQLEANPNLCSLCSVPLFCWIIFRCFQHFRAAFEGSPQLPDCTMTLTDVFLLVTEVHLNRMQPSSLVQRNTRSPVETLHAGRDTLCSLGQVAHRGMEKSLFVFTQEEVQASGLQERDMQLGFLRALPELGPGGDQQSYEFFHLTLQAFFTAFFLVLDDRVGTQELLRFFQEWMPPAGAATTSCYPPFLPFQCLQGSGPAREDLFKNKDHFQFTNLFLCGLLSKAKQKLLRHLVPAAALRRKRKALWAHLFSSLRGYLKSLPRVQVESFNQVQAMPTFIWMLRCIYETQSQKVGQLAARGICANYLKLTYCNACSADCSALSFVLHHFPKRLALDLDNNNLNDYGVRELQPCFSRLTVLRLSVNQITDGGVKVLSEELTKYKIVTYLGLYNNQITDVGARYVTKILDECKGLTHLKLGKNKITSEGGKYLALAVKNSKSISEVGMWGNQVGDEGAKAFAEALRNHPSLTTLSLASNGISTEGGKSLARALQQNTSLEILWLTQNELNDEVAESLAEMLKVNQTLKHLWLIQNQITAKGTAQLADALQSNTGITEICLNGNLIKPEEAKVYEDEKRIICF
Sequence of Cytochrome P450 2C19 (P33261 whole entry): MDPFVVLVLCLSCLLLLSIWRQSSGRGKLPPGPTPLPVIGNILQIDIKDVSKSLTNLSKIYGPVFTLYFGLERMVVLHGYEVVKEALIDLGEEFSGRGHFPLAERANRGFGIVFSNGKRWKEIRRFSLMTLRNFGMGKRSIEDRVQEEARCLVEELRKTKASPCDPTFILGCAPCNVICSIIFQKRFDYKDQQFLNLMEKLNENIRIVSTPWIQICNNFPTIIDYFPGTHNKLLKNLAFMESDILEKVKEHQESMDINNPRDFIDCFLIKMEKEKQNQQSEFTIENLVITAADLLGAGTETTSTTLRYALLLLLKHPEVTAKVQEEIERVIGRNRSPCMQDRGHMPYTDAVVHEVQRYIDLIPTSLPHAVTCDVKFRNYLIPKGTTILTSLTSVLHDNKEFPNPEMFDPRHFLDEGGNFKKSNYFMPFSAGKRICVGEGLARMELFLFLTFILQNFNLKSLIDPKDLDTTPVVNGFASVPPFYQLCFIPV
Sequence of Beta-galactosidase (Q8VNN2 whole entry): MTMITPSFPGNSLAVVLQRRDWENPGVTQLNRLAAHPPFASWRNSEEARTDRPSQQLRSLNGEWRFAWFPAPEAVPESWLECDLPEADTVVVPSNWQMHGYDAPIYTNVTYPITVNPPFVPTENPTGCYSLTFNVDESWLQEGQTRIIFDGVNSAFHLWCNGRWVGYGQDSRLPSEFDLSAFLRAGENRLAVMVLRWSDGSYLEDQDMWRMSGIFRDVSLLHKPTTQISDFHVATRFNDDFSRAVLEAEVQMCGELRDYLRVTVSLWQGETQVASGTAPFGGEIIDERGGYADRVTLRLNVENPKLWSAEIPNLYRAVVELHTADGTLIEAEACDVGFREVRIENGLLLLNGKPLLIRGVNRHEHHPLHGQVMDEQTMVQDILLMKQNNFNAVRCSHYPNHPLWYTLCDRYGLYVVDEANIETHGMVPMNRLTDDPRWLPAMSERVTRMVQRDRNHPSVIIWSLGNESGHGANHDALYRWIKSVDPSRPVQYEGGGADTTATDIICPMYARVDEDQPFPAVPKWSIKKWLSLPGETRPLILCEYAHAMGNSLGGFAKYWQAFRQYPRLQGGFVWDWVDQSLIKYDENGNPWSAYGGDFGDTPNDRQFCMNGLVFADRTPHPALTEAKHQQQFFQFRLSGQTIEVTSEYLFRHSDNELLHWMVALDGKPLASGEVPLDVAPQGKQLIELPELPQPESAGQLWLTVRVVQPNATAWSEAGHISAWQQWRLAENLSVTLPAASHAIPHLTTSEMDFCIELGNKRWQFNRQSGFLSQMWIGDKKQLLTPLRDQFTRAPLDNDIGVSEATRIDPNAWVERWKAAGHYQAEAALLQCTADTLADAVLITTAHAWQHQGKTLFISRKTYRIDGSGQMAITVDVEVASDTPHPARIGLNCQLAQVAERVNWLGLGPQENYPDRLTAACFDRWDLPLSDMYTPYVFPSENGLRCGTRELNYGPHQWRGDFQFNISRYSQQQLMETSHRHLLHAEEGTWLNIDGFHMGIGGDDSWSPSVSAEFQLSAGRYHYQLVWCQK

SMILES: CCc1cc2c3c(c1)C(C)CC(C)(C)N3C(=O)/C2=C1\SC(=O)NC1=O (configuration not stated)
IC50 (HEK293 [1]): > 20 µM (inactive)
EC50 [2]: 10.4 µM (active)
IC50 (Tumor necrosis factor): 8.16 µM (active)
IC50 (HEK293 [3]): 16.4 µM (active)
IC50 [4]: 5.04 µM (active)
EC50 (HEK293 [5]): 7.46 µM (active)
IC50 (HEK293 [6]): > 20 µM (inactive)
IC50 (HEK293 [7]): 10.8 µM (inactive)
IC50 (HEK293 [8]): > 20 µM (inactive)
IC50 [9]: 14.3 µM (not active)
IC50 [10]: 5.9 µM (active)

SMILES: Cc1ccc(C(=O)NCCCN2CCOCC2)c(C)c1
EC50 (T-cell): 22.5 µM (inactive)

EC50 [11]: 4.6 µM (active)
SMILES: O=C(COc1ccccc1Cl)Nc1nnc(-c2ccc(F)cc2)o1

SMILES: COc1ccc(C(=O)Nc2cc(C)ccc2C(=O)O)cc1
IC50 (Hexokinase): > 25 µM (inactive)

SMILES: Cc1cccc(NC(=S)N/N=C/c2ccc([N+](=O)[O-])s2)c1
AC50 [12]: 15.6 µM (active)
AC50 (INS1): 3.86 µM (active)
AC50 (Cytochrome P450 2C9): 1.78 µM (inconclusive)
AC50 (Cytochrome P450 2C19): 1.12 µM (inconclusive)
EC50 [13]: 3.06 µM (active)
IC50 (Beta-galactosidase): > 66.6 µM (inactive)
AC50 [14]: 1.84 µM (active)
EC50 [15]: 1.95 µM (active)
